Measurements from PubChem BioAssay AID256 (DTP/NCI, 2004).
Inconclusive results and toxic doses are left out. How the source made its calls: active means survival T/C of 150% or more; inactive means T/C below 125% in these data.

System: CD2F1 mice, L1210 leukemia ip, survival T/C
Experiment: NCI In Vivo Anticancer Drug Screen. Data for tumor model L1210 Leukemia (intraperitoneal) in CD2F1 (CDF1) mice
Conditions: endpoint: mean survival time, higher = longer survival
How it was run: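 Ratio T/C, where T is the treated-group value and C the vehicle-dosed control value, from mice implanted with a transplantable tumor.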

[1] = dose: 50.0 mg/kg/injection, schedule: Q01DX009 (ip), vehicle: saline with Tween-80
[2] = dose: 100.0 mg/kg/injection, schedule: Q01DX009 (ip), vehicle: saline with Tween-80
[3] = dose: 200.0 mg/kg/injection, schedule: Q01DX009 (ip), vehicle: saline with Tween-80
[4] = dose: 12.5 mg/kg/injection, schedule: Q01DX009 (ip), vehicle: water
[5] = dose: 25.0 mg/kg/injection, schedule: Q01DX009 (ip), vehicle: water
[6] = dose: 50.0 mg/kg/injection, schedule: Q01DX009 (ip), vehicle: water
[7] = dose: 100.0 mg/kg/injection, schedule: Q01DX009 (ip), vehicle: water
[8] = dose: 200.0 mg/kg/injection, schedule: Q01DX009 (ip), vehicle: water
[9] = dose: 100.0 mg/kg/injection, schedule: Q04DX003 (ip), vehicle: saline with Tween-80
[10] = dose: 200.0 mg/kg/injection, schedule: Q04DX003 (ip), vehicle: saline with Tween-80
[11] = dose: 100.0 mg/kg/injection, schedule: Q04DX002 (ip), vehicle: saline with Tween-80
[12] = dose: 200.0 mg/kg/injection, schedule: Q04DX002 (ip), vehicle: saline with Tween-80
[13] = dose: 400.0 mg/kg/injection, schedule: Q04DX002 (ip), vehicle: saline with Tween-80
[14] = dose: 400.0 mg/kg/injection, schedule: Q04DX003 (ip), vehicle: saline with Tween-80
[15] = dose: 12.5 mg/kg/injection, schedule: Q04DX003 (ip), vehicle: saline with Tween-80
[16] = dose: 25.0 mg/kg/injection, schedule: Q04DX003 (ip), vehicle: saline with Tween-80
[17] = dose: 50.0 mg/kg/injection, schedule: Q04DX003 (ip), vehicle: saline with Tween-80
[18] = dose: 400.0 mg/kg/injection, schedule: Q01DX009 (ip), vehicle: saline with Tween-80

Measured: T/C

O=C(O)C(F)(F)F.O=C(O)C(F)(F)F.O=C(O)C(F)(F)F.O=C(O)C(F)(F)F.[Rh].[Rh]
inactive: dose: 12.5 mg/kg/injection, schedule: Q01DX009 (ip), vehicle: saline 107 % of control | dose: 25.0 mg/kg/injection, schedule: Q01DX009 (ip), vehicle: saline 115 % of control | dose: 50.0 mg/kg/injection, schedule: Q01DX009 (ip), vehicle: saline 118 % of control | dose: 100.0 mg/kg/injection, schedule: Q01DX009 (ip), vehicle: saline 107 % of control

O=C(CNC(=O)Nc1cccc([N+](=O)[O-])c1)N/N=C/c1cccc(O)c1
inactive: [1] 92 % of control | [2] 95 % of control | [3] 95 % of control

O=c1[nH]cnc2c1ncn2C1OC(CO)C(O)C1O.O=c1[nH]cnc2c1ncn2C1OC(CO)C(O)C1O.[Cl][Pt][Cl] (configuration not stated)
inactive: [4] 103 % of control | [5] 101 % of control | [6] 101 % of control | [7] 101 % of control | [8] 97 % of control

C1=CC2C=CC12 (configuration not stated)
inactive: [1] 105 % of control | [2] 108 % of control | [9] 95 % of control | [10] 104 % of control

O=C(O)c1cccc2c1-c1c(cccc1[N+](=O)[O-])C2
inactive: [1] 96 % of control | [2] 97 % of control | [9] 101 % of control | [3] 91 % of control | [10] 100 % of control

O=C(Cl)CCc1cc(Cl)no1
inactive: dose: 25.0 mg/kg/injection, schedule: Q04DX003 (ip), vehicle: olive oil, sesame oil, peanut oil 96 % of control | dose: 50.0 mg/kg/injection, schedule: Q04DX003 (ip), vehicle: olive oil, sesame oil, peanut oil 96 % of control | dose: 100.0 mg/kg/injection, schedule: Q04DX003 (ip), vehicle: olive oil, sesame oil, peanut oil 103 % of control | dose: 200.0 mg/kg/injection, schedule: Q04DX003 (ip), vehicle: olive oil, sesame oil, peanut oil 94 % of control | dose: 400.0 mg/kg/injection, schedule: Q04DX003 (ip), vehicle: olive oil, sesame oil, peanut oil 103 % of control

C=CC[n+]1ccccc1Cc1ccccc1
inactive: dose: 25.0 mg/kg/injection, schedule: Q01DX001 (ip), vehicle: saline 98 % of control | dose: 50.0 mg/kg/injection, schedule: Q01DX001 (ip), vehicle: saline 95 % of control

CC(C)(C)C(=O)CC1(O)C(=O)Nc2cccc(C(F)(F)F)c21 (configuration not stated)
inactive: [11] 102 % of control | [12] 109 % of control | [13] 102 % of control

CC1(C(=O)O)CCCC2(C)c3cc(O)ccc3CCC12 (configuration not stated)
inactive: dose: 50.0 mg/kg/injection, schedule: Q01DX009 (ip), vehicle: Klucel (hydroxypropylcellulose) (HPC) 94 % of control | dose: 100.0 mg/kg/injection, schedule: Q01DX009 (ip), vehicle: Klucel (hydroxypropylcellulose) (HPC) 90 % of control

Cc1nc(-c2ccc(N=Cc3ccc(N(CCOS(C)(=O)=O)CCOS(C)(=O)=O)cc3C)cc2)c(C)s1
inactive: dose: 5.0 mg/kg/injection, schedule: Q01DX001 (ip), vehicle: Klucel (hydroxypropylcellulose) (HPC) 101 % of control | dose: 10.0 mg/kg/injection, schedule: Q01DX001 (ip), vehicle: Klucel (hydroxypropylcellulose) (HPC) 104 % of control | dose: 20.0 mg/kg/injection, schedule: Q01DX001 (ip), vehicle: Klucel (hydroxypropylcellulose) (HPC) 104 % of control | dose: 40.0 mg/kg/injection, schedule: Q01DX001 (ip), vehicle: Klucel (hydroxypropylcellulose) (HPC) 115 % of control

CCOc1nnc(-c2ccccc2)o1
inactive: dose: 12.5 mg/kg/injection, schedule: Q01DX009 (ip), vehicle: other 92 % of control | dose: 25.0 mg/kg/injection, schedule: Q01DX009 (ip), vehicle: other 96 % of control | dose: 50.0 mg/kg/injection, schedule: Q01DX009 (ip), vehicle: other 97 % of control | dose: 100.0 mg/kg/injection, schedule: Q01DX009 (ip), vehicle: other 100 % of control | dose: 200.0 mg/kg/injection, schedule: Q01DX009 (ip), vehicle: other 97 % of control

CC(=O)C(C(=O)Nc1ccccc1)c1cc(NS(=O)(=O)c2ccccc2)ccc1O (configuration not stated)
inactive: [9] 102 % of control | [10] 96 % of control | [14] 91 % of control

Cc1cc(CC(Cl)(C(F)(F)F)C(F)(F)F)cc(CC(Cl)(C(F)(F)F)C(F)(F)F)n1
inactive: [15] 97 % of control | [16] 97 % of control | [17] 97 % of control

COc1ccc2ccccc2c1C(=O)CCCc1ccccc1
inactive: [4] 97 % of control | [5] 96 % of control | [6] 97 % of control | [7] 96 % of control | [8] 96 % of control

NS(=O)(=O)c1ccc(Cl)c(Cl)c1
inactive: [2] 108 % of control | [3] 111 % of control

CCOC(=O)CNCC(O)C(Cl)(Cl)Cl (configuration not stated)
inactive: [9] 102 % of control | [10] 98 % of control | [14] 96 % of control

CN(C)c1ncnc2c1cnn2C1OC(CO)C(O)C1O (configuration not stated)
inactive: dose: 12.5 mg/kg/injection, schedule: Q01DX005 (ip), vehicle: water 93 % of control | dose: 25.0 mg/kg/injection, schedule: Q01DX005 (ip), vehicle: water 90 % of control | dose: 50.0 mg/kg/injection, schedule: Q01DX005 (ip), vehicle: water 107 % of control | dose: 100.0 mg/kg/injection, schedule: Q01DX005 (ip), vehicle: water 100 % of control | dose: 200.0 mg/kg/injection, schedule: Q01DX005 (ip), vehicle: water 100 % of control

CN(C)c1nc(N)c2nonc2n1
inactive: dose: 12.5 mg/kg/injection, schedule: Q01DX005 (ip), vehicle: other 97 % of control | dose: 25.0 mg/kg/injection, schedule: Q01DX005 (ip), vehicle: other 97 % of control | dose: 50.0 mg/kg/injection, schedule: Q01DX005 (ip), vehicle: other 92 % of control | dose: 100.0 mg/kg/injection, schedule: Q01DX005 (ip), vehicle: other 97 % of control | dose: 200.0 mg/kg/injection, schedule: Q01DX005 (ip), vehicle: other 95 % of control

CCN(CC)C(=O)Nc1ccc(Cl)cc1
inactive: [11] 104 % of control | [12] 108 % of control

CCc1cc(O)cc(C)c1Cl
inactive: [2] 96 % of control | [9] 92 % of control | [3] 92 % of control | [10] 92 % of control | [14] 100 % of control

OC1(c2ccccc2)C(N2CCOCC2)=C(c2ccccc2)c2ccccc21 (configuration not stated)
inactive: [9] 105 % of control | [10] 100 % of control | [14] 95 % of control

CCCCOC(=O)CC(=O)OCCCC
inactive: [2] 102 % of control | [9] 101 % of control | [3] 104 % of control | [10] 93 % of control | [18] 96 % of control | [14] 93 % of control

Brc1ccc(-c2nc3sc(-c4ccc(Br)cc4)nc3s2)cc1
inactive: [2] 108 % of control | [3] 104 % of control | [18] 102 % of control

Cc1cccnc1NC(=O)/C=C/C(=O)O
inactive: [15] 96 % of control | [16] 101 % of control | [17] 104 % of control

O=C(c1ccccc1Cl)n1c2c(c3ccccc31)CCCC2
inactive: [2] 110 % of control | [9] 101 % of control | [3] 103 % of control | [10] 95 % of control | [18] 96 % of control | [14] 97 % of control

Fc1ccc(N2CCNCC2)cc1
inactive: dose: 12.5 mg/kg/injection, schedule: Q04DX003 (ip), vehicle: saline 101 % of control | dose: 25.0 mg/kg/injection, schedule: Q04DX003 (ip), vehicle: saline 103 % of control | dose: 50.0 mg/kg/injection, schedule: Q04DX003 (ip), vehicle: saline 92 % of control

CCCCCC(O)C(C)C(C)C (configuration not stated)
inactive: [1] 100 % of control | [2] 95 % of control | [3] 103 % of control

CCCCCCCCCCCCCCCCC(Br)C(=O)c1ccccc1 (configuration not stated)
inactive: [11] 102 % of control | [12] 95 % of control | [13] 111 % of control

Oc1ccccc1-c1ccccc1
inactive: [1] 98 % of control | [2] 98 % of control | [3] 98 % of control

COc1ccc(C(=O)CCCC(=O)O)cc1
inactive: [2] 90 % of control | [3] 101 % of control | [18] 97 % of control

CCCC(C)(C)c1ccccc1
inactive: [1] 104 % of control | [2] 96 % of control | [3] 89 % of control

O=C(/C=C(/Nc1ccccc1)c1ccccc1)c1ccccc1
inactive: dose: 100.0 mg/kg/injection, schedule: Q01DX001 (ip), vehicle: saline with Tween-80 90 % of control | dose: 200.0 mg/kg/injection, schedule: Q01DX001 (ip), vehicle: saline with Tween-80 92 % of control | dose: 400.0 mg/kg/injection, schedule: Q01DX001 (ip), vehicle: saline with Tween-80 86 % of control

O=P(O)(O)C1c2ccccc2-c2ccccc21
inactive: [2] 100 % of control | [9] 97 % of control | [3] 94 % of control | [10] 96 % of control | [14] 100 % of control
